# Source: patent US5130300A, “Method for enhancing growth of mammary parenchyma” (Monsanto Company, priority 1987, dated 1992)
# Columns and labels:
# [1] = test system: Quarter-Udders in Pregnant Beef Cows; experiment: Intramammary infusion of bIGF-I, quarter-udder weights and DNA (Examples 14-16); type: in vivo, cross-bred beef cows
# Experimental: (§1) 24 pregnant, non-lactating, cross-bred beef cows within their last 40-80 days of gestation were housed in a free-stall facility, fed a ration of alfalfa hay and pelleted concentrate, and administered 10 ml of an excipient (a sesame oil emulsion of the kind used in Examples 4-6) into each half-udder by intramammary infusion through the streak canal on days 1, 3, 5, 7 and 9 of this study. The infusion technique, random assignment of half-udders to treatment or control, and treatment vs. control comparisons were as in Examples 1-2. In the treatment infusions, the excipient contained bovine insulin-like growth factor-I (bIGF-I) prepared by expression in E. coli (Prla Strain 079) of recombinant DNA coding for bIGF-I fused to the "lam" B cell wall protein signal sequence, secretion into the E. coli periplasmic space, and recovery/purification by conventional techniques including gel filtration, cation exchange and reverse-phase HPLC. This bIGF-I had the same amino acid sequence and secondary structure as the AMgen human IGF-I used in Example 20. In standard L6 myoblast assays, its activity was essentially the same (90-123%) as that of the Example 20 hIGF-I. The amounts of bIGF-I in each infusion were: Group 1-2.5 micrograms: Group 2-25 micrograms; Group 3-250 micrograms. Animals were prepared and infused, and their quarter-udder weights and DNA were determined as in Example 3-6.
# When the procedures described for Groups 1-3 were repeated, results were essentially the same. Pooling results from the original study and its replication, it was determined that both treatment and control quarter-udders had grown as follows: […]
# L6 myoblast = experiment: Standard L6 myoblast assays; type: cell-based
# Experimental: as §1
# [2] = Group 1: total of 12.5 micrograms bIGF-I
# [3] = Group 1: total of 12.5 micrograms bIGF-I, sesame oil emulsion
# [4] = Group 1: total of 12.5 micrograms bIGF-I, B = excipient only
substance,measurement,setting,value
bIGF-I: bovine insulin-like growth factor-I prepared by expression in E. coli of recombinant DNA,"DNA, Avg % Increase/Animal",[1]; [2],12.5%
same,"Dry Fat-Free Weight, Avg % Increase/Animal",[1]; [2],16.0%
same,"Dry Weight, Avg % Increase/Animal",[1]; [2],8.8%
same,"Wet Weight, Avg % Increase/Animal",[1]; [2],11.0%
same,"DNA, Treatment Mean",[1]; [3],1307 mg
same,"Dry Fat-Free Weight, Treatment Mean",[1]; [3],54.9 g
same,"Dry Weight, Treatment Mean",[1]; [3],111.7 g
same,"Wet Weight, Treatment Mean",[1]; [3],408.4 g
same,"DNA, % Increase, (A-B)/B",[1]; [4],7.2%
same,"DNA, Mean Increase (A-B)",[1]; [4],88 mg
same,"Dry Fat-Free Weight, % Increase, (A-B)/B",[1]; [4],14.2%
same,"Dry Fat-Free Weight, Mean Increase (A-B)",[1]; [4],6.9 g
same,"Dry Weight, % Increase, (A-B)/B",[1]; [4],8.7%
same,"Dry Weight, Mean Increase (A-B)",[1]; [4],9.0 g
same,"Wet Weight, % Increase, (A-B)/B",[1]; [4],10.7%
same,"Wet Weight, Mean Increase (A-B)",[1]; [4],39.4 g
same,Plasma levels of bIGF-I during the study,"[1]; intramammary infusion, pregnant beef cows",did not increase significantly
same,"Growth of quarter-udders combined, Medium vs. Low dose","[1]; pooled original study and replication, 25 vs 2.5 micrograms bIGF-I per infusion, Combined",+25%
same,"Growth of control quarter-udders, Medium vs. Low dose","[1]; pooled original study and replication, 25 vs 2.5 micrograms bIGF-I per infusion, Controls",+27%
same,"Growth of treatment quarter-udders, Medium vs. Low dose","[1]; pooled original study and replication, 25 vs 2.5 micrograms bIGF-I per infusion, Treatment",+23.1%
same,"Growth of quarter-udders combined, High vs. Low dose","[1]; pooled original study and replication, 250 vs 2.5 micrograms bIGF-I per infusion, Combined",+67%
same,"Growth of control quarter-udders, High vs. Low dose","[1]; pooled original study and replication, 250 vs 2.5 micrograms bIGF-I per infusion, Controls",+71.3%
same,"Growth of treatment quarter-udders, High vs. Low dose","[1]; pooled original study and replication, 250 vs 2.5 micrograms bIGF-I per infusion, Treatment",+62%
same,"Growth of quarter-udders combined, High vs. Medium dose","[1]; pooled original study and replication, 250 vs 25 micrograms bIGF-I per infusion, Combined",+33%
same,"Growth of control quarter-udders, High vs. Medium dose","[1]; pooled original study and replication, 250 vs 25 micrograms bIGF-I per infusion, Controls",+34.4%
same,"Growth of treatment quarter-udders, High vs. Medium dose","[1]; pooled original study and replication, 250 vs 25 micrograms bIGF-I per infusion, Treatment",+31.5%
same,Growth of the non-infused quarters,[1]; two higher doses (Groups 2-3),substantial growth
same,Growth of treatment quarters vs. control quarters,[1]; two higher doses (Groups 2-3: 25 and 250 micrograms per infusion),did not produce consistently greater growth of treatment quarters vs. control quarters
same,Activity relative to the Example 20 hIGF-I,L6 myoblast,90-123%
